Patent publication US7482144B2, “Method for the production of xylitol” (priority 2000, dated 2009)

Test system: β-xylosidase
Assay: Possible inhibiting effect of xylitol on β-xylosidase
Format: biochemical
Protocol: 300 nkat concentrated β-xylosidase was incubated with 0, 1, 5, 10, 50, 100, 200 and 300 g/l of xylitol at 28° C. Samples were taken after 0, 0.5, 1, 2, 4, 6, 8, 24, 48 and 72 hours incubation and stored at −20° C. The activity of β-xylosidase was measured as described in Poutanen and Puls (1988) Appl. Microbiol. Biotechnol. 28:425-432. The activity of β-xylosidase remained stable in all the samples taken and thus it is not inhibited by xylitol.

OC[C@@H](O)[C@H](O)[C@@H](O)CO [xylitol]
Inhibition of β-xylosidase activity by xylitol (300 nkat β-xylosidase, 0-300 g/l xylitol, 28° C., 0-72 hours): not inhibited | Inhibition of xylanolytic activity by xylitol (studies conducted so far): has not been shown to inhibit
